According to patent EP2066677B1, “PYRIDOOXAZEPINE PROGESTERON RECEPTOR MODULATORS” (N.V. Organon, priority 2006, dated 2008):

Test system: mature cyclic rats
Experiment: Ovulation inhibition in rat (in vivo progestagenic activity)
Conditions: 96 h, minimal active dose: level at which average number of ova is reduced by 60% relative to placebo, oral administration for 1 complete cycle (4 days), read-out: MAD
Method: Ovulation inhibition after oral administration of the compounds of the invention was studied in mature cyclic rats. Animals were treated with test compound (oral administration) for 1 complete cycle (4 days, from oestrus to pro-oestrus) and the number of ova in the oviduct was microscopically assessed at autopsy in the morning of the next (expected) oestrus. The average number of ova per rat was calculated; the minimal active dose (MAD) is defined as the level at which the average number of ova is reduced by 60% relative to placebo-treated animals.

Structure (SMILES) | minimal effective dose [mg/kg]
N#Cc1cc2c(cc1F)Oc1ccccc1[C@@H]1[C@@H](NC(=O)C(F)(F)F)CCCN21 (single isomer, unassigned) [Example 2, (-)-(cis)-N-(7-cyano-8-fluoro-1,3,4,14b-tetrahydro-2H-dibenzo[b,f]pyrido[1,2-d] [1,4]oxazepin-1-yl)-2,2,2-trifluoroacetamide] | 0.014
CC(=O)N[C@H]1CCCN2c3c(cc(F)c(C#N)c3Cl)Oc3cccc(F)c3[C@H]12 (single isomer, unassigned) [Example 6, (-)-(cis)-N-(6-chloro-7-cyano-8,14-difluoro-1,3,4,14b-tetrahydro-2H-dibenzo[b,f]pyrido[1,2-d][1,4]oxazepin-1-yl)acetamide] | < 0.02
N#Cc1c(F)cc2c(c1Cl)N1CCC[C@H](NC(=O)C(F)(F)F)[C@H]1c1cccc(F)c1O2 (single isomer, unassigned) [Example 7, (-)-(cis)-N-(6-chIoro-7-cyano-8,11-difluoro-1,3,4,14b-tetrahydro-2H-dibenzo[b,f]pyrido[1,2-d][1,4]oxazepin-1-yl)-2,2,2-trifluoroacetamide] | 0.025
C=Cc1cccc2c1N1CCC[C@H](NC(=O)C(F)(F)F)[C@H]1c1ccccc1O2 (single isomer, unassigned) [eutomer of example 54 of WO03/084963, reference compound] | > 4
N#Cc1c(F)cc2c(c1Cl)N1CCC[C@@H](NC(=O)C(F)(F)F)[C@@H]1c1ccccc1O2 [Example 3, (-)-(cis)-N-[6-chloro-7-cyano-8-fluoro-1,3,4,14b-tetrahydro-2H-dibenzo[b,f]pyrido[1,2-d][1,4]oxazepin-1-yl]-2,2,2-trifluoroacetamide] | 0.08
N#Cc1c(F)cc2c(c1C#N)N1CCC[C@@H](NC(=O)C(F)(F)F)[C@@H]1c1ccccc1O2 [Example 4, (-)-(cis)-N-(6,7-dicyano-8-fluoro-1,3,4,14b-tetrahydro-2H-dibenzo[b,f]pyrido [1,2-d][1,4]oxazepin-1-yl)-2,2,2-trifluoroacetamide] | 0.02
N#Cc1c(F)cc2c(c1Cl)N1CCC[C@@H](NC(=O)C(F)(F)F)[C@@H]1c1ccc(F)cc1O2 [Example 5, (-)-(cis)-N-(6-chloro-7-cyano-8,12-difluoro-1,3,4,14b-tetrahydro-2H-dibenzo[b,f]pyrido[1,2-d][1,4]oxazepin-1-yl)-2,2,2-trifluoroacetamide] | ≤ 0.025
N#Cc1cc2c(cc1F)Oc1cccc(F)c1[C@H]1[C@H](NC(=O)C(F)(F)F)CCCN21 [Example 8, (-)-(cis)-N-(7-cyano-8,14-difluoro-1,3,4,14b-tetrahydro-2H-dibenzo[b,f]pyrido [1,2-d][1,4]oxazepin-1-yl)-2,2,2-trifluoroacetamide] | 0.01
N#Cc1c(F)cc2c(c1Cl)N1CCC[C@@H](NC(=O)C(F)(F)F)[C@@H]1c1c(F)cccc1O2 [Example 9, (-)-(cis)-N-(6-chloro-7-cyano-8,14-difluoro-1,3,4,14b-tetrahydro-2H-dibenzo [b,f]pyrido[1,2-d][1,4]oxazepin-1-yl)-2,2,2-trifluoroacetamide] | < 0.02
